Among the data in ChEMBL document CHEMBL3507680, “University of Dundee, Gates Library screen for HepG2 cell viability” are cytotoxicity values, retold here.

The nature of the data set: Human HepG2 cell viability assay in 384 well format. The data set is classed as toxicity, cell-based. On the set-up: dose 125 nL, time 70.5 hour; cytotoxicity at 70.5 h: concentration not given beside the values. The following applies: HepG2 cells, read-out: Inhibition.
For `Cc1cc(N2CCC(N(C)C(=O)Nc3ccccc3)CC2)nc(C)n1`, the cytotoxicity at 70.5 h amounted to 2.35%.

For `C[C@H]1C[C@H]2CN(C(=O)CC3CC3)CC[C@H]2O1`, the cytotoxicity at 70.5 h is -7.47%.

As to `COc1ccc2c(=O)n(CC3CC3)ccc2c1OC`, the cytotoxicity at 70.5 h is 2.47%.

`Cc1cnc(-c2nc(NC3CCCC3)ncc2-c2onc(C)c2C)cn1`: the cytotoxicity at 70.5 h was -4.47%.

For `O=C(c1ccsc1)N1CCc2nnc(COc3cncnc3)n2CC1`, the cytotoxicity at 70.5 h turned out to be 26.7%.

Turning to `Cc1cc(CN2CCN(C(=O)NCc3ccco3)CC2)no1`, the cytotoxicity at 70.5 h turned out to be 18.9%.

Turning to `CCOCc1cnc2n1CCN(C(=O)Cc1ccco1)C2C` (centres undefined), the cytotoxicity at 70.5 h was -6.58%.

For the compound `CN(Cc1cccnc1)C1COC2(CCN(Cc3nccs3)CC2)C1` (centres undefined), the cytotoxicity at 70.5 h is -11%.

Take `CC(=O)Nc1cccc([C@H]2C[C@@H](NC(C)=O)CCO2)c1`: the cytotoxicity at 70.5 h was 13.2%.

Regarding `OC1CCN(c2ccnc(NCCc3ccccc3Cl)n2)CC1`, the cytotoxicity at 70.5 h is -25.8%.

On to `CC(C)(C)n1ncc2c1NC(=O)CSC2c1ccc2c(c1)OCO2` (centres undefined), for which the cytotoxicity at 70.5 h came to 2.42%.

For `c1cncc(C2COC3(CCN(Cc4nccs4)CC3)C2)c1` (centres undefined), the cytotoxicity at 70.5 h is -9.69%.

For the compound `N#Cc1ccnc(N2CCC(c3nccn3Cc3cscn3)CC2)c1`, the cytotoxicity at 70.5 h is 31.3%.

In the case of `Cc1ccc(CN(C(=O)C(C)NC(N)=O)C2CC2)cc1C` (centres undefined), the cytotoxicity at 70.5 h was 25.3%.

On to `Cc1cc(Nc2ccccn2)nc(C2CCCN(CCO)C2)n1` (centres undefined), for which the cytotoxicity at 70.5 h is -8.92%.

Take `COc1cc(CN2CC[C@H](NC(C)=O)[C@@H](O)CC2)ccc1F`: the cytotoxicity at 70.5 h was 12.1%.

Regarding `Cc1n[nH]c(C)c1C1CCCN1C(=O)c1coc(Br)c1` (centres undefined), the cytotoxicity at 70.5 h is -5.01%.

Take `Cn1cc(CN2CC(C(=O)Nc3ccccc3)C3(CCOCC3)C2)cn1` (centres undefined): the cytotoxicity at 70.5 h is -9.91%.

Consider `Cc1cnc(CN2CCN(c3ccc4nncn4n3)C(C)C2)cn1` (centres undefined), for which the cytotoxicity at 70.5 h was -15.4%.

For `CCOCC(=O)NCc1cc(C2CC2)n(C2CCCC2)n1`, the cytotoxicity at 70.5 h was 0.0223%.

With `OCCn1nccc1C1CCN(CCOc2ccc(Cl)cc2)CC1`, the cytotoxicity at 70.5 h was -1.15%.

Regarding `Cc1cnn(C2CCCN(C(=O)c3ccc(OCC4CC4)nc3)C2)c1` (centres undefined), the cytotoxicity at 70.5 h is -3.84%.

As to `Cn1ccc(C(=O)NC2CCC23CCN(Cc2cccnc2)CC3)c1` (centres undefined), the cytotoxicity at 70.5 h was -7.38%.

As for `c1cc(-c2n[nH]cc2-c2ccnc(N3CCCC3)n2)ccn1`, the cytotoxicity at 70.5 h was -2.36%.

With `Cc1ccc(CN2C[C@H]3CN(C(=O)c4ccno4)CCN3C2=O)cc1`, the cytotoxicity at 70.5 h came out at 6.23%.

With `Cc1ncsc1CCN(C)Cc1cc2n(n1)CCN(S(C)(=O)=O)C2`, the cytotoxicity at 70.5 h is -6.95%.

For `Cc1cnc(N2CC3(CCN(C(=O)c4cccnc4)C3)C2)nc1`, the cytotoxicity at 70.5 h was -4.83%.

Consider `O=C(Nc1ccccc1-c1ccccc1)N1C[C@@H]2CNC[C@]2(C(=O)O)C1`, for which the cytotoxicity at 70.5 h was -2.53%.

On to `CCN(CCOC)C(=O)c1cc(COc2ccc3c(c2)CCCC3)on1`, for which the cytotoxicity at 70.5 h was -3.35%.

On to `O=C(CSc1ccc2c(c1)OCCO2)NS(=O)(=O)c1ccccc1Br`, for which the cytotoxicity at 70.5 h was -6.54%.

Turning to `COc1ccc(CNC(=O)NCC(O)(c2cccs2)C2CC2)cc1` (centres undefined), the cytotoxicity at 70.5 h was -6.74%.

For the compound `Cc1cc(C2CCCN2C(=O)NCc2cccnc2OC(C)C)on1` (centres undefined), the cytotoxicity at 70.5 h was -9.53%.

`N#Cc1ccc(C(=O)N2CC[C@H]3[C@H]2CCN3CC2CCOCC2)cc1`: the cytotoxicity at 70.5 h was 12.2%.

Turning to `Oc1ccccc1-c1n[nH]c(C2CCCO2)n1` (centres undefined), the cytotoxicity at 70.5 h amounted to 28.5%.

`Cc1ccc(-c2cc(CN3CCc4cncnc4C3)on2)cc1`: the cytotoxicity at 70.5 h was -10.9%.

`CC(=O)Nc1ccc(SCC(O)COCc2ccccc2)cc1` (centres undefined): the cytotoxicity at 70.5 h was -12.4%.

For the compound `O=C(NCc1cnn2cccnc12)C1CC2(CCNCC2)CN1` (centres undefined), the cytotoxicity at 70.5 h is -4.05%.

On to `Cc1cc(C(=O)N2CC[C@H]3[C@H]2CCN3S(C)(=O)=O)c(C)o1`, for which the cytotoxicity at 70.5 h turned out to be 0.739%.

For `Cc1nc(CN2CCC3(CC2)NC(=O)CC3c2ccncc2)cs1` (centres undefined), the cytotoxicity at 70.5 h was -5.12%.

In the case of `Cn1cc(C2CCCN2Cc2csc(Cc3ccccc3)n2)cn1` (centres undefined), the cytotoxicity at 70.5 h is -8.68%.

`Cc1ncc(CN2CCC3(CCCN(CC4CCC4)C3)C2)cn1` (centres undefined): the cytotoxicity at 70.5 h is -4.13%.

Turning to `COC(=O)CC1CN(Cc2c(Cl)ccc3cccnc23)CCO1` (centres undefined), the cytotoxicity at 70.5 h was -12.3%.

On to `CN(Cc1ccccc1)C(=O)CN1CCCC(Cn2cncn2)C1` (centres undefined), for which the cytotoxicity at 70.5 h was -7.31%.

With `O=C(Cc1cccnc1)N1CC(Cc2nccc3cc[nH]c23)C1`, the cytotoxicity at 70.5 h was 6.89%.

As for `COC(=O)c1ccc(F)c(Cn2nc(C)cc2C)c1`, the cytotoxicity at 70.5 h was 4.73%.

For `CC(=O)NCC(=O)N1Cc2nccn2CC(CN(C)C(C)C)C1` (centres undefined), the cytotoxicity at 70.5 h is -13.6%.

Turning to `Cc1cc(-c2cnc(C)nc2CN(C)C(=O)c2cc(C3CC3)on2)on1`, the cytotoxicity at 70.5 h is -3.21%.

With `Cc1cccc(CNc2n[nH]c(C)n2)c1`, the cytotoxicity at 70.5 h was -5.26%.

Regarding `Cc1cccn2cc(CNCc3cccc4c3OCCCO4)nc12`, the cytotoxicity at 70.5 h turned out to be 8.14%.

In the case of `CCn1cc(C(=O)NCCN2CCCc3ccccc32)c(C)n1`, the cytotoxicity at 70.5 h is -0.0816%.

On to `COCCN1CCC2(CC1)CC(NC(=O)C1CC1)c1ccccc1O2` (centres undefined), for which the cytotoxicity at 70.5 h is -5.15%.

As to `c1ccc(CO[C@@H]2C[C@H]3CN(c4ncccn4)CCN3C2)cc1`, the cytotoxicity at 70.5 h was determined as 5.2%.

Consider `CCc1ncc2c(n1)CN(Cc1cn3ccsc3n1)CC2`, for which the cytotoxicity at 70.5 h is 9.84%.

Turning to `COc1ncccc1CN1C[C@@H]2COC[C@]2(COc2cccnc2)C1`, the cytotoxicity at 70.5 h was -13.7%.

`O=C(NCCCN1CCc2ccccc2C1)c1cccnc1O`: the cytotoxicity at 70.5 h is -11.9%.

As for `COc1ccsc1C(=O)N1CCCN(Cc2cscn2)CC1`, the cytotoxicity at 70.5 h was -5.36%.

Turning to `COc1nc2c(cc1C(=O)N(C)Cc1[nH]nc3c1CCC3)CCC2`, the cytotoxicity at 70.5 h was 27.9%.

Turning to `O=C(c1cc(COc2ccc3c(c2)OCO3)[nH]n1)N1CCCC1`, the cytotoxicity at 70.5 h is -5.85%.

Turning to `O=C1CSc2ccccc2N1Cc1noc(C2CCCO2)n1` (centres undefined), the cytotoxicity at 70.5 h was -5.67%.

As to `COc1cccc(C2CC(=O)Nc3c2c(=O)n(C)c2ncnn32)c1` (centres undefined), the cytotoxicity at 70.5 h stood at 16.7%.

As to `Cc1noc(C)c1CN1CCN(C(=O)CCn2cncn2)CC1`, the cytotoxicity at 70.5 h was -6%.

On to `Cc1noc([C@H]2C[C@@H]3CCN(c4nnc(C)s4)C[C@H]3O2)n1`, for which the cytotoxicity at 70.5 h is -8.11%.

As for `CCN(CC)C(=O)CNS(=O)(=O)c1cc(Br)ccc1F`, the cytotoxicity at 70.5 h was -5.2%.

With `c1c(-c2nc(CN3CCOCC3)no2)nnn1CC1CCCCC1`, the cytotoxicity at 70.5 h is -13.5%.

In the case of `Cc1cc(C)c(CNC(=O)N2CCC(N3CCNC3=O)CC2)c(=O)[nH]1`, the cytotoxicity at 70.5 h was -10.5%.

On to `CN1CCC(c2cccc(Cc3ccccc3)n2)CC1`, for which the cytotoxicity at 70.5 h amounted to 3.18%.

As to `Cc1cnc(CNC(=O)[C@@]23CCO[C@@H]2CCN(c2ncccn2)C3)cn1`, the cytotoxicity at 70.5 h is -12.7%.

On to `Cc1cc(NC(=O)CCc2ccsc2)n(C)n1`, for which the cytotoxicity at 70.5 h was -9.51%.

Turning to `O=C1N(c2ccc(Br)cc2)Cc2nc(=O)[nH]n21`, the cytotoxicity at 70.5 h was -16.4%.

On to `CC(C)Oc1cccc(-c2nc3c([nH]2)CCCNC3=O)c1`, for which the cytotoxicity at 70.5 h was determined as 5.17%.

Turning to `CC(C)(CNc1c(C#N)cnc2ccc(Cl)cc12)C(N)=O`, the cytotoxicity at 70.5 h is -17.7%.

For the compound `Cc1ncn(-c2cc(N3CCN(S(C)(=O)=O)CC3)ncn2)c1C`, the cytotoxicity at 70.5 h was -4.92%.

For `c1ccc(CCNc2ncnc3c2CCN(Cc2c[nH]cn2)CC3)cc1`, the cytotoxicity at 70.5 h was -0.00958%.

For `O=C(CN1CCCC1CCCO)NCc1ccccn1` (centres undefined), the cytotoxicity at 70.5 h stood at 1.57%.

As to `COc1ccc(COCC(=O)N2CCC(c3nncn3C)CC2)cc1`, the cytotoxicity at 70.5 h was -12.3%.

On to `CC(C)(C(=O)NCC1CC1)c1ccccc1F`, for which the cytotoxicity at 70.5 h is -4.02%.

As for `CCc1ccc(S(=O)(=O)N2CCN(CCn3ccnc3)CC2)cc1`, the cytotoxicity at 70.5 h was -0.658%.

As for `Cc1sc2ncnc(N3CCCC3Cn3cccn3)c2c1C` (centres undefined), the cytotoxicity at 70.5 h was -11.4%.

For `Cc1ncsc1CN1CCO[C@H]2[C@H](Oc3ccccn3)CC[C@@H]21`, the cytotoxicity at 70.5 h was -1.48%.

Regarding `c1ccc(COC[C@H]2CC[C@H]3[C@H](CCN3Cc3cccs3)O2)nc1`, the cytotoxicity at 70.5 h is -3.77%.

For the compound `CC(C)NC(=O)[C@@H]1C[C@@H](N)CN1C(=O)c1cc2c([nH]c1=O)CCCC2`, the cytotoxicity at 70.5 h was -6.99%.

Consider `Cc1ncsc1C(=O)NCCn1nc2ccccn2c1=O`, for which the cytotoxicity at 70.5 h is -13.7%.

With `Cc1cnn(CC2CN(CC(=O)Nc3cccnc3)CCO2)c1` (centres undefined), the cytotoxicity at 70.5 h is -4.29%.

On to `Cn1cnc2c1CCN(CC(=O)N(Cc1ccccc1F)C1CC1)C2`, for which the cytotoxicity at 70.5 h is -6.36%.

Turning to `c1cnn(CCNCc2ccc(N3CCCCC3)cc2)c1`, the cytotoxicity at 70.5 h is -13.6%.

On to `CC(C)N(C)C(=O)c1ccc(CNc2cncc(Cl)n2)cc1`, for which the cytotoxicity at 70.5 h was -115%.

Consider `Nc1nc2c(c(NC(Cn3cccn3)c3ccccc3)n1)CCNCC2` (centres undefined), for which the cytotoxicity at 70.5 h is 0.802%.

For the compound `CC[C@@]1(O)CCN(C(=O)c2ccsc2)C[C@H]1O`, the cytotoxicity at 70.5 h was -7.08%.

On to `CCS(=O)(=O)NCCNC(C)(C)c1nc(C)cs1`, for which the cytotoxicity at 70.5 h is -2.97%.

For the compound `CCNc1cc2c(nn1)CCN(C(=O)c1ccoc1)C2`, the cytotoxicity at 70.5 h was -11.9%.

For `COC(=O)CN(C(=O)c1ccc(-n2ccnc2)cc1)C1CC1`, the cytotoxicity at 70.5 h was -1.73%.

`CC(C)(C)c1nc(CN2CCN(C(=O)c3cnccn3)CC2)cs1`: the cytotoxicity at 70.5 h was -1.47%.

Take `O=C(CCn1ccc2ccccc21)N1CCC(Nc2cccnn2)CC1`: the cytotoxicity at 70.5 h was -3.47%.

Regarding `O=S(=O)(c1ccc(-c2cnco2)cc1)N1CCCC2(CCNCC2)CC1`, the cytotoxicity at 70.5 h stood at 0.207%.

For the compound `Cc1nc(NC2CCOCC2)cc(C2CCN2S(C)(=O)=O)n1` (centres undefined), the cytotoxicity at 70.5 h is -6.12%.

As for `COc1ccc(CNc2n[nH]c(C)n2)cc1`, the cytotoxicity at 70.5 h was -11.8%.

Take `Cc1noc(C)c1CN1CCO[C@H]2CN(Cc3cncn3C)C[C@H]21`: the cytotoxicity at 70.5 h amounted to 19%.

On to `CN1C(=O)C2(CC(=O)Nc3[nH]ncc32)c2cc(Cl)ccc21` (centres undefined), for which the cytotoxicity at 70.5 h is -29.3%.

In the case of `COCCN1CCCn2cnc(CNC(=O)N(C)C)c2C1`, the cytotoxicity at 70.5 h was -3.75%.
